Experimental data as given in US6723753B2, “Substituted n-benzyl-n-phenyl aminoalcohol compounds useful for inhibiting cholesteryl ester transfer protein activity” (Pharmacia Corporation, priority 2002, dated 2004).

target: T1, CETP (Homo sapiens, UniProt P11597); experiment: Assay of CETP Inhibition using Purified Components (Reconstituted Buffer Assay); assay type: biochemical; set-up: made in house; host or cells: CHO cells (serum-free conditioned medium); settings: IC50, Inhibition of CETP activity in reconstituted buffer assay; transfer of [3H]CE from HDL to LDL
T1 sequence (P11597 18-493): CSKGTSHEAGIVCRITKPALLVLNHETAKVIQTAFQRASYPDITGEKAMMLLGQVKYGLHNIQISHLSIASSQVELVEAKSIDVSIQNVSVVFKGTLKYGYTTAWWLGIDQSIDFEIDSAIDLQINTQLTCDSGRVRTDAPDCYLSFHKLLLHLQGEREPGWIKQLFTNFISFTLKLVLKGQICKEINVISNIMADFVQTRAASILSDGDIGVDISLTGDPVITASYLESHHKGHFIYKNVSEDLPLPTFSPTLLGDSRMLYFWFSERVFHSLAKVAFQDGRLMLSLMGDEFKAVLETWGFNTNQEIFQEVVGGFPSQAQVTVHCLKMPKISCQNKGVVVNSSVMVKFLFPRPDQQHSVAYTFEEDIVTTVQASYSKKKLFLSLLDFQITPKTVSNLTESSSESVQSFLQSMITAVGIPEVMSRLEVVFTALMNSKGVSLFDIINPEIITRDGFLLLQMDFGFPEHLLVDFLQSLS
Method in brief: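 Purified human recombinant CETP from transfected CHO cells was incubated with [^3H]CE-labeled HDL donor and LDL acceptor in Tris pH 7.4/NaCl/EDTA/1% BSA buffer for 2 h at 37 °C. LDL was then precipitated with dextran sulfate/MgCl2, filtered, and counted by liquid scintillation to give IC50 for CE transfer.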

SMILES	IC50 [µM]
OC(CN(Cc1cccc(-c2ncccc2C(F)(F)F)c1)c1cccc(Oc2ccccc2)c1)C(F)(F)F (centres unmarked) [Example 588, 3-[(3-phenoxyphenyl)[[3-[(3-trifluoromethyl)-2-pyridinyl]phenyl]methyl]amino]-1,1,1-trifluoro-2-propanol]	4.1
Cc1cccnc1-c1cccc(CN(CC(O)C(F)(F)F)c2cccc(Oc3ccccc3)c2)c1 (centres unmarked) [Example 589]	15

same assay, conditions: Inhibition of CETP activity in reconstituted buffer assay; transfer of [3H]CE from HDL to LDL; read-out: IC50

SMILES	IC50 [µM]
O=C(Nc1cccc(N(Cc2cccc(OC(F)(F)C(F)F)c2)CC(O)C(F)(F)F)c1)c1ccccc1 (centres unmarked) [Example 536]	> 50
COc1cccc(C(=O)Nc2cccc(N(Cc3cccc(OC(F)(F)C(F)F)c3)CC(O)C(F)(F)F)c2)c1 (centres unmarked) [Example 537]	> 50
CC(C)COC(=O)Nc1cccc(N(Cc2cccc(OC(F)(F)C(F)F)c2)CC(O)C(F)(F)F)c1 (centres unmarked) [Example 538]	> 50
O=C(Nc1cccc(N(Cc2cccc(OC(F)(F)C(F)F)c2)CC(O)C(F)(F)F)c1)c1cccnc1 (centres unmarked) [Example 539]	> 50
CC(C)C(=O)Nc1cccc(N(Cc2cccc(OC(F)(F)C(F)F)c2)CC(O)C(F)(F)F)c1 (centres unmarked) [Example 540]	> 50
CC(C)CNc1cccc(N(Cc2cccc(OC(F)(F)C(F)F)c2)CC(O)C(F)(F)F)c1 (centres unmarked) [Example 541]	0.97
OC(CN(Cc1cccc(OC(F)(F)C(F)F)c1)c1cccc(NCc2ccccc2)c1)C(F)(F)F (centres unmarked) [Example 542]	2.4
OC(CN(Cc1cccc(OC(F)(F)C(F)F)c1)c1cccc(NCc2ccc(F)cc2)c1)C(F)(F)F (centres unmarked) [Example 543]	2.7
OC(CN(Cc1cccc(OC(F)(F)C(F)F)c1)c1cccc(NCc2cccc(OC(F)(F)C(F)F)c2)c1)C(F)(F)F (centres unmarked) [Example 544]	2.3
O=C(Nc1ccc(F)cc1)Nc1cccc(N(Cc2cccc(OC(F)(F)C(F)F)c2)CC(O)C(F)(F)F)c1 (centres unmarked) [Example 545, N-(4-fluorophenyl)-N′-[3-[[[3-(1,1,2,2-tetrafluoroethoxy)phenyl]methyl]-(3,3,3-trifluoro-2-hydroxypropyl)amino]phenyl]urea]	> 50
O=C(Nc1ccccc1)Nc1cccc(N(Cc2cccc(OC(F)(F)C(F)F)c2)CC(O)C(F)(F)F)c1 (centres unmarked) [Example 546]	> 50
COc1cccc(NC(=O)Nc2cccc(N(Cc3cccc(OC(F)(F)C(F)F)c3)CC(O)C(F)(F)F)c2)c1 (centres unmarked) [Example 547]	> 50
O=C(Nc1cccc(N(Cc2cccc(OC(F)(F)C(F)F)c2)CC(O)C(F)(F)F)c1)Nc1cccc(C(F)(F)F)c1 (centres unmarked) [Example 548]	> 50
CC(C)NC(=O)Nc1cccc(N(Cc2cccc(OC(F)(F)C(F)F)c2)CC(O)C(F)(F)F)c1 (centres unmarked) [Example 549]	> 50
OC(CN(Cc1cccc(OC(F)(F)C(F)F)c1)c1cccc(-c2cc(C(F)(F)F)cc(C(F)(F)F)c2)c1)C(F)(F)F (centres unmarked) [Example 551]	10
CSc1ccc(-c2cccc(N(Cc3cccc(OC(F)(F)C(F)F)c3)CC(O)C(F)(F)F)c2)cc1 (centres unmarked) [Example 553]	4.8
COc1c(Cl)cc(-c2cccc(N(Cc3cccc(OC(F)(F)C(F)F)c3)CC(O)C(F)(F)F)c2)cc1Cl (centres unmarked) [Example 555]	2.5
OC(CN(Cc1cccc(OC(F)(F)C(F)F)c1)c1cccc(-c2ccc(Cl)c(Cl)c2)c1)C(F)(F)F (centres unmarked) [Example 561]	1.8
COc1ccc(-c2cccc(N(Cc3cccc(OC(F)(F)C(F)F)c3)CC(O)C(F)(F)F)c2)cc1C (centres unmarked) [Example 562]	2.1
Cc1cc(-c2cccc(N(Cc3cccc(OC(F)(F)C(F)F)c3)CC(O)C(F)(F)F)c2)cc(C)c1N(C)C (centres unmarked) [Example 563]	> 50
OC(CN(Cc1cccc(OC(F)(F)C(F)F)c1)c1cccc(-c2ccc(Cl)cc2)c1)C(F)(F)F (centres unmarked) [Example 565]	1.5

SMILES	IC50 [µM]
Cc1ccc(-c2cccc(N(Cc3cccc(OC(F)(F)C(F)F)c3)CC(O)C(F)(F)F)c2)cc1 (centres unmarked) [Example 566]	2.7
OC(CN(Cc1cccc(OC(F)(F)C(F)F)c1)c1cccc(-c2ccc(Cl)cc2Cl)c1)C(F)(F)F (centres unmarked) [Example 567]	0.55
OC(CN(Cc1cccc(OC(F)(F)C(F)F)c1)c1cccc(-c2ccc(F)cc2)c1)C(F)(F)F (centres unmarked) [Example 568]	1.4
Cc1cc(-c2cccc(N(Cc3cccc(OC(F)(F)C(F)F)c3)CC(O)C(F)(F)F)c2)ccc1F (centres unmarked) [Example 569]	1.2
OC(CN(Cc1cccc(OC(F)(F)C(F)F)c1)c1cccc(-c2ccccc2C(F)(F)F)c1)C(F)(F)F (centres unmarked) [Example 570]	1.8
COc1cccc(-c2cccc(N(Cc3cccc(OC(F)(F)C(F)F)c3)CC(O)C(F)(F)F)c2)c1 (centres unmarked) [Example 571]	1.6
Nc1cccc(-c2cccc(N(Cc3cccc(OC(F)(F)C(F)F)c3)CC(O)C(F)(F)F)c2)c1 (centres unmarked) [Example 572]	10
O=C(O)c1ccc(-c2cccc(N(Cc3cccc(OC(F)(F)C(F)F)c3)CC(O)C(F)(F)F)c2)cc1 (centres unmarked) [Example 573]	> 50
CC(C)(C)c1ccc(-c2cccc(N(Cc3cccc(OC(F)(F)C(F)F)c3)CC(O)C(F)(F)F)c2)cc1 (centres unmarked) [Example 574]	18
CS(=O)(=O)c1ccc(-c2cccc(N(Cc3cccc(OC(F)(F)C(F)F)c3)CC(O)C(F)(F)F)c2)cc1 (centres unmarked) [Example 575]	> 50
N#Cc1cccc(N(Cc2cccc(OC(F)(F)C(F)F)c2)CC(O)C(F)(F)F)c1 (centres unmarked) [Example 576, 3-[[[3-(1,1,2,2-tetrafluoroethoxy)phenyl]methyl](3,3,3-trifluoro-2-hydroxypropyl)amino]benzonitrile]	6.4
OC(CN(Cc1cccc(OC(F)(F)C(F)F)c1)c1cccc(-c2nn[nH]n2)c1)C(F)(F)F (centres unmarked) [Example 577, 3-[[[3-(1,1,2,2-tetrafluoroethoxy)phenyl]methyl][3-(1H-tetrazol-5-yl)phenyl]amino]-1,1,1-trifluoro-2-propanol]	> 50
Cc1cc(C(=O)c2cccc(N(Cc3cccc(OC(F)(F)C(F)F)c3)CC(O)C(F)(F)F)c2)ccc1F (centres unmarked) [Example 578, (4-Fluoro-3-methylphenyl) [3-[[[(1,1,2,2-tetrafluoroethoxy)phenyl]methyl](3,3,3-trifluoro-2-hydroxypropyl)amino]phenyl]methanone]	0.76
O=C(c1ccccc1)c1cccc(N(Cc2cccc(OC(F)(F)C(F)F)c2)CC(O)C(F)(F)F)c1 (centres unmarked) [Example 579]	1.8
O=C(c1ccc(F)cc1)c1cccc(N(Cc2cccc(OC(F)(F)C(F)F)c2)CC(O)C(F)(F)F)c1 (centres unmarked) [Example 580]	2.3
O=C(c1cccc(N(Cc2cccc(OC(F)(F)C(F)F)c2)CC(O)C(F)(F)F)c1)C1CCCC1 (centres unmarked) [Example 581]	0.87
CC(C)C(=O)c1cccc(N(Cc2cccc(OC(F)(F)C(F)F)c2)CC(O)C(F)(F)F)c1 (centres unmarked) [Example 582]	1.4
OC(c1ccccc1)c1cccc(N(Cc2cccc(OC(F)(F)C(F)F)c2)CC(O)C(F)(F)F)c1 (stereo not drawn) [Example 583, α-Phenyl-3-[[[3-(1,1,2,2-tetrafluoroethoxy)phenyl]methyl]](3,3,3-trifluoro-2-hydroxypropyl)benzenemethanol]	6.4
CCOC(=O)c1cccc(N(Cc2cccc(OC(F)(F)F)c2)CC(O)C(F)(F)F)c1 (centres unmarked) [Example 585, Ethyl 3-[(3,3,3-trifluoro-2-hydroxypropyl)[[(3-trifluoromethoxy)phenyl]methyl]amino]benzoate]	5.8
O=C(O)c1cccc(N(Cc2cccc(OC(F)(F)F)c2)CC(O)C(F)(F)F)c1 (centres unmarked) [Example 586]	> 50
OC(CN(Cc1cccc(-c2cccnc2)c1)c1cccc(Oc2ccccc2)c1)C(F)(F)F (centres unmarked) [Example 590]	14
